The values below come from patent US11612595B2, “Compositions and methods for treating rheumatoid arthritis” (Generos Biopharma Ltd., priority 2017, dated 2023).

A short description of series [1]: weight changes in mouse CIA model. In kind it is in vivo, DBA/1J mice. The settings on record: 5 mg/kg i.p. daily. On the procedure:
FIGS. 7A and 78 show graphs depicting weight changes in five groups of mouse CIA models under different treatment schemes. DBA/1 mice were randomly divided into 9 groups with 10 mice each group. On day 0 and 21, all of them except blank control group were inoculated with 50 ul collagen plus CFA mixture subcutaneously at back flank near tail. The weights of all 90 mice were monitored 3 times a week throughout the experiment.
(§1) Eight of nine groups (10 mice in each group) of male DBA/1J mice (age 9-10 weeks. H-2q haplotype) were subject to CIA model induction and then to different treatment schemes. The group of mice without CIA model induction was used as a control (Blank). Specifically, Bovine type II collagen (Chondrex) was mixed with Freund's complete adjuvant (CFA) (Sigma) and injected s.c. to flank near tail of the mice twice (the second injection was made 21 days after the first injection) to create CIA model mice. The eight groups of CIA model mice were separated into four prophylactic groups and four therapeutic groups, with each group subjected to different treatments.
(§2) In the four prophylactic groups, daily treatments started from the date when the first CIA induction injection was made. The first of the four prophylactic groups of CIA model mice were treated with 30% PEG300 (containing 4% DMSO-all 30% PEG300 in the application contains 4% DMSO) solution via intraperitoneal injection as controls (Model). The second of the four prophylactic groups of CIA model mice were treated with nicotinohydrazide (Calbiochem) 10 mg/kg in 30% PEG300 solution via intraperitoneal injection (573108 10 mg/kg). The third of the four prophylactic groups of CIA model mice were treated with nicotinohydrazide (Calbiochem) 5 mg/kg in 30% PEG300 solution via intraperitoneal injection (573108 5 mg/kg). The last of the four prophylactic groups of CIA model mice were treated with Tofacitinib (Selleckchem) 5 mg/kg in 30% PEG300 solution via intraperitoneal injection (Tofacitinib 5 mg/kg).
(§3) In the four therapeutic groups, daily treatments started from the date when the second CIA induction injection was made. The first of the four therapeutic groups of CIA model mice were treated with 30% PEG300 solution via intraperitoneal injection as controls (Model). The second of the four therapeutic groups of CIA model mice were treated with nicotinohydrazide (Calbiochem) 10 mg/kg in 30% PEG300 solution via intraperitoncal injection (573108 10 mg/kg). The third of the four therapeutic groups of CIA model mice were treated with nicotinohydrazide (Calbiochem) 5 mg/kg in 30% PEG300 solution via intraperitoneal injection (573108 5 mg/kg). The last of the four therapeutic groups of CIA model mice were treated with Tofacitinib (Selleckchem) 5 mg/kg in 30% PEG300 solution via intraperitoncal injection (Tofacitinib 5 mg/kg).
(§4) The inventors collected data of the weight, and clinical scores of the mice every 2-3 days and performed statistic analysis. The method used in the statistic analysis was Student's t test, unpaired, two-tailed analysis.

For series [2], the system named is collagen-induced arthritis (CIA) model mice. Description: collagen-induced arthritis (CIA) model mice, clinical scores. In kind it is in vivo, DBA/1J mice. The arrangement: key to Pairwise analysis of the difference between groups (clinical scores), vs Model / Pairwise analysis of the difference between groups (clinical scores), S5i 5 mpk vs S5i 10 mpk: p values from pairwise comparisons. The following applies: for clinical scores compared to Model: 5 mg/kg i.p. daily; for Pairwise analysis of the difference between groups (clinical scores), vs Model: 5 mpk.
Excerpt: FIGS. 8A and 8B show graphs depicting clinical score changes in four groups of CIA mouse models under different treatment schemes. In FIG. 8A, different chemicals (DMSO as control for Model group, blank group is left untreated) were daily administered intraperitoneally at the indicated doses from the first injection of the collagen agent. In FIG. 8B, different chemicals were daily administered intraperitoneally from the second injection of collagen agent at the indicated doses. Clinical scores were given double-blindly according to the scoring scheme every 2 days.
FIGS. 9A and 9B show graphs of clinical scores at day 44 for each group, the overall difference analyzed by ANOVA is significant p<0.0001, while the p value between Model and each individual group is labeled above the bar * p<0.05, ** p<0.01.
as §1, §2, §3, §4
The clinical scores were derived according to the scheme in Table 2.

Structures are written as SMILES.

On to `C[C@@H]1CCN(C(=O)CC#N)C[C@@H]1N(C)c1ncnc2[nH]ccc12` [Tofacitinib], for which the “trend of weight changes, p vs Model” value in series [1] (prophylactic groups) was found to be 0.0130; in series [1] (therapeutic groups), 0.0005. The “clinical scores compared to Model” value in series [2] (prophylactic groups) and in series [2] (therapeutic groups) was “reduced clinical scores” in each case. Also, the “Pairwise analysis of the difference between groups (clinical scores), vs Model” value in series [2] (prophylactic groups, Day 28) is 0.0949; in series [2] (prophylactic groups, Day 30) it was 0.0496; in series [2] (prophylactic groups, Day 32), 0.0610; in series [2] (prophylactic groups, Day 35), 0.0064; in series [2] (prophylactic groups, Day 37), 0.0178; in series [2] (prophylactic groups, Day 39), 0.0010. The “Pairwise analysis of the difference between groups (clinical scores), vs Model” value in series [2] (prophylactic groups, Day 42) worked out at 0.0015; in series [2] (prophylactic groups, Day 44), 0.0026; in series [2] (therapeutic groups, Day 28), 0.0258; in series [2] (therapeutic groups, Day 30), 0.0471; in series [2] (therapeutic groups, Day 32) it was 0.0138; in series [2] (therapeutic groups, Day 35) it was 0.0163. In addition, the “Pairwise analysis of the difference between groups (clinical scores), vs Model” value is reported as 0.0170 in series [2] (therapeutic groups, Day 37); 0.0153 in series [2] (therapeutic groups, Day 39); 0.0081 in series [2] (therapeutic groups, Day 42); 0.0044 in series [2] (therapeutic groups, Day 44).
